Where two headings read alike, the source gives them in different places.

Test [1] deals with Fibrosarcoma (HT-1080) cancer cell line. Nature of the test: MTS assay viability IC50, HT-1080. The conditions noted are these: Homo sapiens, Table 5, read-out: IC50 Fibro Sarcoma (HT-1080). It counts as cell-based. As to the method: (§1) Dehydroabietylamine, its N-substituted derivatives and the corresponding dihydroabietylamine and its N-substituted derivatives are tested for their capability to inhibit cell growth of cancer cell lines, including melanoma (UACC 903, 1205Lu), breast (MCF-7), fibrosarcoma (HT-1080), colon (Caco-2), and prostate (PC-3) cancer cell lines. Viability and IC50 of normal human fibroblasts and cell lines from melanoma and other malignancies following treatment with all the agents are measured using the MTS assay (Promega, Madison, Wis.). Human fibroblast FF2441 cells, metastatic melanoma cell lines 1205 Lu and UACC 903 as well as cancer cell lines representing sarcoma (HT-1080), prostate (PC-3, LNCaP), breast (MCF-7) and lung (A-549) are maintained in DMEM (Invitrogen, Carlsbad, Calif.) supplemented with 10% FBS (Hyclone, Logan, Utah) in a 5% CO2 atmosphere, humidified 37° C. incubator. 5×10^3 cells per well in 100 μL of media are plated and grown in a 96-well plate for 48 to 72 h and treated with either DMSO vehicle control or 0.62 to 40 μmol/L for 24, 48 or 72 h. IC50 values for each compound in […] for respective cell lines are measured from three independent experiments using GraphPad Prism version 4.01 (GraphPad Software, La Jolla, Calif.). FIG. 52 is a graph showing IC50 values for leelamine and compounds 4a, 4b and 5a in treated fibroblasts (FF2441) compared to melanoma cells. Selectivity ratio here is defined as ratio of activity against fibroblasts compared to activity against melanoma cells. Leelamine is relatively selective with a ratio of >6 and >4 for UACC903 and 1205Lu melanoma cells. The selectivity ratio of compound 4a is ˜4 and ˜3 for UACC903 and 1205Lu and for compound 4b is ˜4 for both cell lines. The selectivity ratio of compound 5a is ˜4 for UACC903 and >2 for 1205Lu cells.

Test [2] deals with 1205 Lu metastatic melanoma cells. Briefly: MTS assay viability IC50, 1205 Lu. In kind it is cell-based, human. Conditions: for IC50: Homo sapiens, 1205Lu; for Selectivity ratio, fibroblasts versus 1205Lu: activity against fibroblasts FF2441 compared to melanoma cells. The method, then:
(§2) The efficacy of leelamine to kill other cancer types is measured and the IC50 for cell lines derived from carcinomas of breast, lung, prostate, connective tissue, pancreas and colon determined. The MTS assay as described in Sharma, A. et al., Clin Cancer Res, 2009, 15:1674-85; and Madhunapantula, S. V. et al., Mol Cancer Ther, 2008, 7:1297-308 is used to establish the IC50 at 24, 48 and 72 hours of leelamine treatment for normal human epidermal melanocytes (FOM103), normal skin fibroblast cells (FF2441), normal skin keratinocytes (HFK) and compared to melanocytic lesion cells from the radial-, vertical- and metastatic melanoma stages. 5×10^3 cells per well in 100 μL of media are plated and grown in a 96-well plate for 48 to 72 hours and treated with either DMSO vehicle control or 0.62 to 40 μmol/L of leelamine for 24, 48 or 72 hours. IC50 values for each compound in μmol/L for respective cell lines are measured from three independent experiments using GraphPad Prism version 4.01 (GraphPad Software, La Jolla, Calif.). Leelamine is found to be not toxic to normal cells and effective to kill melanoma cells as well as non-melanoma cancer cells as shown in Table 1 in FIG. 20. Leelamine is 3- to 4-fold more specific at killing metastatic melanoma than normal cells, supporting cancer therapeutic utility at concentrations<2 μmol/L.
(§3) 5×10^3 cells per well in 100 μL of media are plated and grown in a 96-well plate for 48 to 72 hours and treated with either DMSO vehicle control or 0.62 to 40 μmol/L of leelamine for 24, 48 or 72 hours. IC50 values for each compound in μmol/L for respective cell lines are measured from three independent experiments using GraphPad Prism version 4.01 (GraphPad Software, La Jolla, Calif.).
(§4) The IC50 and effect of liposomal preparations of leelamine on viability of normal human melanocytes, fibroblasts and melanoma cells UACC 903 and 1205 Lu are measured using the MTS assay (Promega, Madison, Wis.). Empty liposomes or liposomes containing abietic acid are used as controls. 5×10^3 cells per well in 100 μL of media are plated and grown in a 96-well plate for 48 or 72 hours for melanoma and normal cell lines, respectively. The cells are then treated with 0.62 to 40 μmol/L of liposome alone, a liposomal preparation of abietic acid, or with Nanolipolee-007 for 24 hours. IC50 values for each liposome in μmol/L for respective cell lines are measured from three independent experiments using GraphPad Prism version 4.01 (GraphPad Software, La Jolla, Calif.). Nanolipolee-007 retains the growth inhibitory activity of leelamine in killing melanoma cells in culture and specifically kills melanoma cells compared to normal cells, FIG. 24.
as §1, with “FIG. 52 is a graph showing IC50 values for leelamine and compounds 4a, 4b and 5a in treated fibroblasts (FF2441) compared to melanoma cells. Selectivity ratio here is defined as ratio of activity against fibroblasts compared to activity against melanoma cells. Leelamine is relatively selective with a ratio of >6 and >4 for UACC903 and 1205Lu melanoma cells. The selectivity ratio of compound 4a is ˜4 and ˜3 for UACC903 and 1205Lu and for compound 4b is ˜4 for both cell lines. The selectivity ratio of compound 5a is ˜4 for UACC903 and >2 for 1205Lu cells.” left out

The test system of test [3] is Prostate (LnCap) cancer cell line. Briefly: MTS assay viability IC50, LnCap. In kind it is cell-based. Conditions: Homo sapiens, Table 5. The method, then: as §1
Test [4] concerns UACC 903 metastatic melanoma cells. Briefly: MTS assay viability IC50, UACC 903. In kind it is cell-based, human. The conditions noted are these: for IC50: Homo sapiens, UACC-903; for Selectivity ratio, fibroblasts versus UACC903: activity against fibroblasts FF2441 compared to melanoma cells. The method, then:
as §2, §3, §4
as §1, with “FIG. 52 is a graph showing IC50 values for leelamine and compounds 4a, 4b and 5a in treated fibroblasts (FF2441) compared to melanoma cells. Selectivity ratio here is defined as ratio of activity against fibroblasts compared to activity against melanoma cells. Leelamine is relatively selective with a ratio of >6 and >4 for UACC903 and 1205Lu melanoma cells. The selectivity ratio of compound 4a is ˜4 and ˜3 for UACC903 and 1205Lu and for compound 4b is ˜4 for both cell lines. The selectivity ratio of compound 5a is ˜4 for UACC903 and >2 for 1205Lu cells.” left out

[5] abbreviates: Table 6, read-out: IC50 Metastatic melanoma 1205 Lu.
[6] abbreviates: Table 5, read-out: IC50 Melanoma (UACC903).
[7] abbreviates: Table 6, read-out: IC50 Metastatic melanoma UACC 903.
The mark [8] stands for this setting: Table 7, read-out: IC50 (UACC903).
Setting [9] is: Table 4, read-out: IC50 Metastatic Melanoma Cell line 1205Lu.
Setting [10] is: Table 4, read-out: IC50 Metastatic Melanoma Cell line UACC903.

As to `CC(C)c1ccc2c(c1)CCC1[C@](C)(CN)CCC[C@]21C` (stereo partly drawn) [Leelamine, [(1R,4aS)-1,4a-dimethyl-7-(propan-2-yl)-1,2,3,4,4a,9,10,10a-octahydrophenanthren-1-yl]methanamine], the IC50 in test [1] was found to be 3.75 ± 0.54 µM; in test [2] (setting [5]), 1.93 ± 0.16 µM; in test [3], 10.9 ± 2.11 µM; in test [4] (setting [6]), 1.35 ± 0.5 µM; in test [4] (setting [7]) it was 1.35 ± 0.05 µM; in test [4] (setting [8]) it was 1.35 µM. Besides, the “Selectivity ratio, fibroblasts versus 1205Lu” value in test [2] is recorded as more than 4. Also, the “Selectivity ratio, fibroblasts versus UACC903” value in test [4] is more than 6.

Turning to `CC(C)C1=CC2=CCC3[C@](C)(CCC[C@@]3(C)C(=O)O)C2CC1` (stereo partly drawn) [Abietic acid, (1R,4aR)-1,4a-dimethyl-7-(propan-2-yl)-1,2,3,4,4a,4b,5,6,10,10a-decahydrophenanthrene-1-carboxylic acid, reference compound], the IC50 in test [1], in test [2] (setting [9]), in test [2] (setting [5]), in test [3], in test [4] (setting [10]) and in test [4] (setting [6]) was more than 100 µM in each case. In addition, the IC50 in test [4] (setting [7]) and in test [4] (setting [8]) was more than 100 µM each time.

On to `CC(C)c1ccc2c(c1)CCC1[C@](C)(CNC(=O)C(F)(F)F)CCC[C@]21C` (stereo partly drawn) [Compound 5a, N-{[(1R,4aS)-1,4a-dimethyl-7-(propan-2-yl)-1,2,3,4,4a,9,10,10a-octahydrophenanthren-1-yl]methyl}-2,2,2-trifluoroacetamide], for which the IC50 is 3.73 ± 0.54 µM in test [1]; 2.08 ± 0.05 µM in test [2] (setting [9]); 2.08 ± 0.05 µM in test [2] (setting [5]); 8.63 ± 0.97 µM in test [3]; 1.28 ± 0.05 µM in test [4] (setting [10]); 1.28 ± 0.05 µM in test [4] (setting [6]). Also, the IC50 in test [4] (setting [7]) was found to be 1.28 ± 0.05 µM; in test [4] (setting [8]) it was 1.28 µM. For the same compound, the “Selectivity ratio, fibroblasts versus 1205Lu” value in test [2] is reported as more than 2. In test [4], the “Selectivity ratio, fibroblasts versus UACC903” value is reported as approximately 4.

Turning to `CC(C)C1=CC2=CCC3[C@](C)(CN)CCC[C@]3(C)C2CC1` (stereo partly drawn) [Compound 4a, {[(1R,4aR)-1,4a-dimethyl-7-(propan-2-yl)-1,2,3,4,4a,4b,5,6,10,10a-decahydrophenanthren-1-yl]methyl}amine], the IC50 in test [1] was determined as 6.29 ± 1.1 µM; in test [2] (Example 8, read-out: IC50 1205Lu) it was 2.87 µM; in test [2] (setting [9]) it was 2.87 ± 0.07 µM; in test [2] (setting [5]) it was 2.87 ± 0.07 µM; in test [3] it was 14.8 ± 1.99 µM; in test [4] (Example 8, read-out: IC50 UACC 903), 2.13 µM. Moreover, the IC50 in test [4] (setting [10]) was found to be 2.13 ± 0.19 µM; in test [4] (setting [6]) it was 2.36 ± 0.25 µM; in test [4] (setting [7]), 2.13 ± 0.19 µM; in test [4] (setting [8]) it was 2.13 µM. For the same compound, in test [2], the “Selectivity ratio, fibroblasts versus 1205Lu” value was approximately 3. The “Selectivity ratio, fibroblasts versus UACC903” value in test [4] is reported as approximately 4.

For the origin of these results see US9839618B2, “Compositions and methods relating to proliferative diseases” (The Penn State Research Foundation, priority 2010, dated 2017).
